# Reference: US8716292B2, “Riminophenazines with 2-(heteroaryl)amino substituents and their anti-microbial activity” (priority 2010, dated 2014)
# Test system: Mycobacterium tuberculosis H37Rv strains
# Test: In vitro assay for antimicrobial susceptibility (microplate Alamar blue MIC)
# Assay type: cell-based
# Settings: Mycobacterium tuberculosis, H37RV, 7H9, Alamar blue, inhibition ≧90%; read-out: MIC (μg/mL) against H37Rv
row,Compound,MIC [µg/mL]
1,"Clc1ccc(-n2c3c/c(=N\C4CCCCC4)c(Nc4cncnc4)cc-3nc3ccccc32)cc1 [TBI-961, 5-(4-Chlorophenyl)-3-cyclohexylimino-2-(pyrimidin-5-yl)amino-3,5-dihydrophenazine]",0.015
2,"COC1CCC(/N=c2\cc3n(-c4ccc(F)cc4)c4ccccc4nc-3cc2Nc2cnccn2)CC1 (stereo not shown) [TBI-1079, 5-(4-Fluorophenyl)-3-(4-methoxycyclohexyl)imino-2-(pyrazin-2-yl)amino-3,5-dihydrophenazine]",0.037
3,"Clc1cccc(-n2c3c/c(=N\C4CCOCC4)c(Nc4cncnc4)cc-3nc3ccccc32)c1 [TBI-980, 5-(3-Chlorophenyl)-3-(4-tetrahydropyranyl)imino-2-(pyrimidin-5-yl)amino-3,5-dihydrophenazine]",0.06
4,"COC1CCC(/N=c2\cc3n(-c4ccc(Cl)cc4)c4ccccc4nc-3cc2Nc2ncccn2)CC1 (stereo not shown) [TBI-1090, 5-(4-Chlorophenyl)-3-(4-methoxycyclohexyl)imino-2-(pyrimidin-2-yl)amino-3,5-dihydrophenazine]",< 0.0075

# Same assay, conditions: Mycobacterium tuberculosis, H37RV, in vitro, Mycobacterium tuberculosis H37Rv strains; read-out: MIC (μg/mL) against H37Rv
row,Compound,MIC [µg/mL]
1,"COCC(COC)/N=c1\cc2n(-c3cccc(Cl)c3)c3ccccc3nc-2cc1Nc1cccnc1OC [TBI-825, 5-(3-Chlorophenyl)-3-(1,3-dimethoxyisopropyl)imino-2-(2-methoxy-3-pyridyl)amino-3,5-dihydrophenazine]",0.125
2,"CC(C)/N=c1\cc2n(-c3ccc(OC(F)(F)F)cc3)c3ccccc3nc-2cc1Nc1cccnc1 [TBI-157, 5-(4-Trifluoromethoxyphenyl)-3-(1-methylethyl)imino-2-(3-pyridyl)amino-3,5-dihydrophenazine]",0.03
3,"CC(C)/N=c1\cc2n(-c3ccc(Br)cc3)c3ccccc3nc-2cc1Nc1cccnc1 [TBI-088, 5-(4-Bromophenyl)-3-(1-methylethyl)imino-2-(3-pyridyl)amino-3,5-dihydrophenazine]",0.023
4,"COc1ncccc1Nc1cc2nc3ccccc3n(-c3cccc(OC(F)(F)F)c3)c-2c/c1=N\C1CCC(OC)CC1 (stereo not shown) [TBI-1039, 5-(3-Trifluoromethoxyphenyl)-3-(4-methoxycyclohexyl)imino-2-(2-methoxy-3-pyridyl)amino-3,5-dihydrophenazine]",0.059
5,"Cc1ccc(Nc2cc3nc4ccccc4n(-c4ccccc4)c-3c/c2=N\C2CCC2)cn1 [TBI-506, 5-Phenyl-3-cyclobutylimino-2-(6-methyl-3-pyridyl)amino-3,5-dihydrophenazine]",0.05
6,"Cc1ccc(Nc2cc3nc4ccc(F)cc4n(-c4ccc(Cl)c(Cl)c4)c-3c/c2=N\C(C)C)cn1 [TBI-896, 7-Fluoro-5-(3,4-dichlorophenyl)-3-(1-methylethyl)imino-2-(6-methyl-3-pyridyl)amino-3,5-dihydrophenazine]",0.25
7,"Cc1ncccc1Nc1cc2nc3ccccc3n(-c3ccccc3)c-2c/c1=N\C1CCCCC1 [TBI-077, 5-Phenyl-3-cyclohexylimino-2-(2-methyl-3-pyridyl)amino-3,5-dihydrophenazine]",0.016
8,"CC(C)CN1CCC(/N=c2\cc3n(-c4ccccc4)c4ccccc4nc-3cc2Nc2cccnc2)CC1 [TBI-057, 5-phenyl-3-(N-isobutyl-4-piperidyl)imino-2-(3-pyridyl)amino-3,5-dihydrophenazine]",0.125
9,"COC1CCC(/N=c2\cc3n(-c4ccc(Cl)cc4)c4ccccc4nc-3cc2Nc2cccnc2C)CC1 (stereo not shown) [TBI-453, 5-(4-Chlorophenyl)-3-(4-methoxycyclohexyl)imino-2-(2-methyl-3-pyridyl)amino-3,5-dihydrophenazine]",0.011
10,"COc1ncccc1Nc1cc2nc3ccccc3n(-c3cccc(Cl)c3)c-2c/c1=N\C1CC1 [TBI-823, 5-(3-Chlorophenyl)-3-cyclopropylimino-2-(2-methoxy-3-pyridyl)amino-3,5-dihydrophenazine]",0.03
11,"Cc1ccc(-n2c3c/c(=N\C4CCN(C)CC4)c(Nc4ccc(C)nc4)cc-3nc3ccccc32)cc1 [TBI-319, 5-(4-Methylphenyl)-3-(N-methyl-4-piperidyl)imino-2-(6-methyl-3-pyridyl)amino-3,5-dihydrophenazine]",0.173
12,"Cc1ccc(Nc2cc3nc4ccccc4n(-c4ccc(F)cc4)c-3c/c2=N\C(C)C)cn1 [TBI-692, 5-(4-Fluorophenyl)-3-(1-methylethyl)imino-2-(6-methyl-3-pyridyl)amino-3,5-dihydrophenazine]",0.06
13,"COc1ncccc1Nc1cc2nc3ccccc3n(-c3ccccc3OC(F)(F)F)c-2c/c1=N\C1CCOCC1 [TBI-1045, 5-(2-Trifluoromethoxyphenyl)-3-(4-tetrahydropyranyl)imino-2-(2-methoxy-3-pyridyl)amino-3,5-dihydrophenazine]",0.4
14,"COc1ccc(Nc2cc3nc4ccccc4n(-c4ccc(C(F)(F)F)cc4)c-3c/c2=N\C2CCC(OC)CC2)cn1 (stereo not shown) [TBI-735, 5-(4-Trifluoromethylphenyl)-3-(4-methoxycyclohexyl)imino-2-(6-methoxy-3-pyridyl)amino-3,5-dihydrophenazine]",0.186
15,"Cc1ccc(Nc2cc3nc4ccccc4n(-c4ccc(Cl)c(Cl)c4)c-3c/c2=N\C2CCOCC2)cn1 [TBI-945, 5-(3,4-Dichlorophenyl)-3-(4-tetrahydropyranyl)imino-2-(6-methyl-3-pyridyl)amino-3,5-dihydrophenazine]",0.25
16,"Cc1ccc(-n2c3c/c(=N\C4CCCCC4)c(Nc4cccnc4C)cc-3nc3ccccc32)cc1 [TBI-312, 5-(4-Methylphenyl)-3-cyclohexylimino-2-(2-methyl-3-pyridyl)amino-3,5-dihydrophenazine]",0.053
17,"Cc1ccc(-n2c3c/c(=N\C(C)C)c(Nc4cccnc4)cc-3nc3ccccc32)cc1 [TBI-300, 5-(4-Methylphenyl)-3-(1-methylethyl)imino-2-(3-pyridyl)amino-3,5-dihydrophenazine]",0.03

row,Compound,MIC [µg/mL]
1,"Cc1ccc(Nc2cc3nc4ccccc4n(-c4ccc(F)cc4)c-3c/c2=N\C2CCCCC2)cn1 [TBI-905, 5-(4-Fluorophenyl)-3-cyclohexylimino-2-(6-methyl-3-pyridyl)amino-3,5-dihydrophenazine]",0.057
2,"COc1ccc(Nc2cc3nc4ccccc4n(-c4ccc(F)cc4)c-3c/c2=N\C2CCOCC2)cn1 [TBI-935, 5-(4-Fluorophenyl)-3-(4-tetrahydropyranyl)imino-2-(6-methoxy-3-pyridyl)amino-3,5-dihydrophenazine]",0.205
3,"Cc1ccc(Nc2cc3nc4ccccc4n(-c4ccc(Cl)c(Cl)c4)c-3c/c2=N\C2CCC2)cn1 [TBI-948, 5-(3,4-Dichlorophenyl)-3-cyclobutylimino-2-(6-methyl-3-pyridyl)amino-3,5-dihydrophenazine]",0.125
4,"Cc1ccc(Nc2cc3nc4ccccc4n(-c4ccccc4)c-3c/c2=N\C2CCOCC2)cn1 [TBI-070, 5-Phenyl-3-(4-tetrahydropyranyl)imino-2-(6-methyl-3-pyridyl)amino-3,5-dihydrophenazine]",0.08
5,"Cc1ncccc1Nc1cc2nc3ccccc3n(-c3ccc(C(F)(F)F)cc3)c-2c/c1=N\C1CCOCC1 [TBI-707, 5-(4-Trifluoromethylphenyl)-3-(4-tetrahydropyranyl)imino-2-(2-methyl-3-pyridyl)amino-3,5-dihydrophenazine]",0.011
6,"COc1ncccc1Nc1cc2nc3ccccc3n(-c3ccc(C)cc3)c-2c/c1=N\C1CCC1 [TBI-344, 5-(4-Methylphenyl)-3-cyclobutylimino-2-(2-methoxy-3-pyridyl)amino-3,5-dihydrophenazine]",0.04
7,"COc1ncccc1Nc1cc2nc3ccccc3n(-c3ccc(NC(C)=O)cc3)c-2c/c1=N\C1CC1 [TBI-1221, 5-(4-Acetamidophenyl)-3-cyclopropylimino-2-(2-methoxy-3-pyridyl)amino-3,5-dihydrophenazine]",0.9
8,"CC(=O)Nc1ccc(Nc2cc3nc4ccccc4n(-c4ccc(C(F)(F)F)cc4)c-3c/c2=N\C2CCC(O)CC2)cn1 (stereo not shown) [TBI-714, 5-(4-Trifluoromethylphenyl)-3-(4-hydroxycyclohexyl)imino-2-(6-acetamino-3-pyridyl)amino-3,5-dihydrophenazine]",0.686
9,"Clc1ccc(-n2c3c/c(=N\C4CC4)c(Nc4cccnc4)cc-3nc3ccccc32)c(Cl)c1 [TBI-367, 5-(2,4-Dichlorophenyl)-3-cyclopropylimino-2-(3-pyridyl)amino-3,5-dihydrophenazine]",0.023
10,"Clc1ccc(-n2c3c/c(=N\C4CC4)c(Nc4cccnc4)cc-3nc3ccccc32)cc1Cl [TBI-343, 5-(3,4-Dichlorophenyl)-3-cyclopropylimino-2-(3-pyridyl)amino-3,5-dihydrophenazine]",0.014
11,"Cc1ccc(-n2c3c/c(=N\C4CCC(O)CC4)c(Nc4ccc(C)nc4)cc-3nc3ccccc32)cc1 (stereo not shown) [TBI-334, 5-(4-Methylphenyl)-3-(4-hydroxycyclohexyl)imino-2-(6-methyl-3-pyridyl)amino-3,5-dihydrophenazine]",0.372
12,"Clc1ccc(-n2c3c/c(=N\C4CC4)c(Nc4cncc(Br)c4)cc-3nc3ccccc32)cc1 [TBI-882, 5-(4-Chlorophenyl)-3-cyclopropylimino-2-(5-bromo-3-pyridyl)amino-3,5-dihydrophenazine]",0.015
13,"COc1ncccc1Nc1cc2nc3cc(F)ccc3n(-c3ccc(Cl)c(Cl)c3)c-2c/c1=N\C1CCOCC1 [TBI-877, 8-Fluoro-5-(3,4-dichlorophenyl)-3-(4-tetrahydropyranyl)imino-2-(2-methoxy-3-pyridyl)amino-3,5-dihydrophenazine]",0.091
14,"Cc1ccc(-n2c3c/c(=N\C4CCOCC4)c(Nc4cccnc4)cc-3nc3ccccc32)cc1 [TBI-303, 5-(4-Methylphenyl)-3-(4-tetrahydropyranyl)imino-2-(3-pyridinyl)amino-3,5-dihydrophenazine]",0.03
15,"COCC(COC)/N=c1\cc2n(-c3ccc(C)cc3)c3ccccc3nc-2cc1Nc1cccnc1OC [TBI-373, 5-(4-Methylphenyl)-3-(1,3-dimethoxyisopropyl)imino-2-(2-methoxy-3-pyridyl)amino-3,5-dihydrophenazine]",0.125
16,"COC1CCC(/N=c2\cc3n(-c4ccc(C(F)(F)F)cc4)c4ccccc4nc-3cc2Nc2ccc(NC(C)=O)nc2)CC1 (stereo not shown) [TBI-715, 5-(4-Trifluoromethylphenyl)-3-(4-methoxycyclohexyl)imino-2-(6-acetamino-3-pyridyl)amino-3,5-dihydrophenazine]",0.06
